Assay results: patent publication US5932580A, “PDGF receptor kinase inhibitory compounds their preparation and compositions” (priority 1997, dated 1999)
Entries after “also recorded” stand apart in the source; their conditions may differ. Read-outs that look alike come from different tables or passages of the source.

Columns and labels:
neointimal formation = conditions: controlled local delivery; rat carotid balloon injury model; cited from earlier work
PDGF β-receptor = molecular target: T1, PDGF β-receptor (Sus scrofa, UniProt F1RL75); experiment: PDGF induced PDGFR autophosphorylation in intact SMC cells; assay type: cell-based; conditions: porcine arterial SMC
T1 construct: PDGF-BB stimulated; immunoprecipitated with PDGF beta-receptor specific antiserum R3
T1 sequence (F1RL75 109-1181): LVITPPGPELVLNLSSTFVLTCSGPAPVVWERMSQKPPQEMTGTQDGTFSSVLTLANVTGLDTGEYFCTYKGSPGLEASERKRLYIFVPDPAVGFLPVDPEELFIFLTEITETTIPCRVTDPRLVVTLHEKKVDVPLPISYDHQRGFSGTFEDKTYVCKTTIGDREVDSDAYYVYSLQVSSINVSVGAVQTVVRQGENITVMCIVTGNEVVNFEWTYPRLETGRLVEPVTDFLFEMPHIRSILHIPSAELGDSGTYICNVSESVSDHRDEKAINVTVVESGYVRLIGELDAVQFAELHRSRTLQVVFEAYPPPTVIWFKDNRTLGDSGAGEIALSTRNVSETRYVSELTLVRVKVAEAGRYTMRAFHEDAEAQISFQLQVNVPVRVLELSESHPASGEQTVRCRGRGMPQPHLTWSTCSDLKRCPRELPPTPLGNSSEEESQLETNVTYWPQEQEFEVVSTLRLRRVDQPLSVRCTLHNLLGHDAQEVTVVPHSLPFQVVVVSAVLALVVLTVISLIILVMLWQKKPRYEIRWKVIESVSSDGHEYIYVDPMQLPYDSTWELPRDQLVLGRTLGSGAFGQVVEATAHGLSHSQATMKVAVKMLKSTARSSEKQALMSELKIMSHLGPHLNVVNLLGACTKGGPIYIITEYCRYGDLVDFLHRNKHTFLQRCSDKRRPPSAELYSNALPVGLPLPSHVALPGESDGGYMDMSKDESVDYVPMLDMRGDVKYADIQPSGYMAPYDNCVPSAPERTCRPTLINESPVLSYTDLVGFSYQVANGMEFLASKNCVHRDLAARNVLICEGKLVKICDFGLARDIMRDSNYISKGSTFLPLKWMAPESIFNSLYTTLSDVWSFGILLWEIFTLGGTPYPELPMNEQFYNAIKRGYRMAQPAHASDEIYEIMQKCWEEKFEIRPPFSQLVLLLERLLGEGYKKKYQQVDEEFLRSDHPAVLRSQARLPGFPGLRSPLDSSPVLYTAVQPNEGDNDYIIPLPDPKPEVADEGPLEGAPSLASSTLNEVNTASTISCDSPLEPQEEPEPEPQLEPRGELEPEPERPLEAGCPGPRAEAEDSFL
Experimental: Effect of tyrphostins on PDGF induced PDGFR autophosphorylation in intact SMC cells: Subconfluent porcine arterial smooth muscle cells, cultivated in Dulbecco's modified Eagle's medium (DMEM) supplemented with 15% fetal calf serum (FCS), were synchronized for 20 hours in a medium containing 2% FCS. […] After stimulation, the cells were solubilized in Nonidet P-40 (1%) containing lysis buffer.
The analysis of PDGF p-receptor phosphorylation was performed as follows. Cell lysates were subjected to immunoprecipitation using the PDGF β-receptor specific antiserum R3 [5]. The percipitates were subjected to polyacrylamide (7.5%) gel electrophoresis in presence of sodium deducyl sulfate (SDS-PAGE) and were thereafter blotted onto a nitrocellulose membrane (Hybond C-EXTRA, Amersham). Phosphorylated proteins were detected by immunoblotting using the horseradish-peroxidase conjugated phosphotyrosine antibody RC20H (Transduction Laboratories), followed by chemoluminescence-based detection (ECL, Amersham) and autoradiography.
Detection of receptor proteins was performed as follows. Cell lysates were subjected to immunoprecipitation using the PDGF β-receptor specific antiserum R3 [5], as described above, and the percipitates washed three times and thereafter subjected to SDS-PAGE (7.5%) and blotting onto a nitrocellulose membrane (Hybond C-EXTRA, Amersham). Receptor proteins were detected by immunoblotting using the horseradish-peroxidase conjugated donkey anti-rabbit antibody (Amersham), followed by chemoluminescence-based detection (ECL, Amersham) and autoradiography.

[1] = test system: epidermal growth factor receptor; conditions: cited from earlier work
[2] = test system: human internal mammary artery smooth muscle cells (IMA SMC); experiment: Inhibition of cell proliferation and recovery, human IMA SMC; assay type: cell-based
From the text: (§1) Smooth muscle cells (SMC) were obtained under aseptic conditions from porcine abdominal aortas, and human internal mammary arteries (IMA). Specimens from the operating room were transferred on ice to the tissue culture room. Each artery was cut open and the endothelial surface mechanically scraped. The vessels were then cut into 2 mm^2 fragments which were placed in culture dishes with Dulbecco's modified Eagle's medium (DMEM) supplemented with 15% (v/v) fetal calf serum (FCS), 100 u/ml penicillin, 100 μg/ml streptomycin, and 0.2M L-glutamine. The tissue fragments were then placed in an incubator at 37° C. under 9% CO2 atmosphere until SMC outgrowth was detected (typically within 3-7 days). […] For experiments testing the effect of tyrphostins on growth inhibition and recovery (see below), SMC from passages 1-3 were replated in 15 mm wells pretreated with 3 μg/cm^2 fibronectin (Biological Industries, Kibbutz Beit Haemek, Israel) at 15,000 cells/well.
Inhibition of cell proliferation and recovery: Monolayer cell growth inhibition and recovery experiments were repeated 3 or 4 times. Each experiment was performed in triplicate. Approximately 15,000 cells (SMC or EC) in 1 ml of culture medium supplemented with 15% FCS were seeded on day 0 in 15 mm-wells precoated with fibronectin. Cultures were treated with a tyrphostin (10 μM) dissolved in 0.1% DMSO on days 1 and 3. On day 6, cultures were washed and the cells allowed to recover. Typically cells were counted on days 3 and 5 for inhibition, and on days 7, 10 and 15 for recovery, other schedules were also employed as reported below. The medium supplemented with serum (M-199 with ECGS for EC, and DMEM for SMC) was changed every other day throughout the experiment.
FIG. 9 presents the maximal inhibitory and recovery effects on human IMA SMC growth inflicted by 10 or 25 μM of AG1851 and AG1295. Cells were grown in the presence of the specified tyrphostins and were counted after seven days in culture. On day 7 the cultures were washed and the cells allowed to recover. Seven days later they were counted for recovery. The bar graph show the maximal inhibition and the recovery in each experiment and for controls.

[3] = test system: porcine endothelial cells (EC); experiment: Inhibition of cell proliferation and recovery, porcine EC; assay type: cell-based; conditions: for inhibition at 10 µM: Sus scrofa, Endothelial cell
From the text: Endothelial cells (EC) were isolated from porcine carotid arteries. Using aseptic procedure, both common carotid arteries were isolated, and the distal end of each artery was cannulated through an arteriotomy and ligated. The arteries were then perfused with phosphate buffered saline (PBS) and the proximal end ligated isolating a 5-7 cm long blood-free portion of the artery. The isolated portion of each artery was filled with PBS containing calcium and magnesium and 0.1% collagenase (Boehringer Manneheim, Germany). The segments were excised and incubated for 10 min at 37° C. in sterile bottles containing PBS. […] Cells were seeded on fibronectin-coated dishes at a seeding density of 15,000 cells/well and incubated at 37° C. in 9% CO2. ECGS (25 μg/ml) was added every other day until confluence was observed, typically within 6-8 days.
(§2) Inhibition of cell proliferation and recovery: Monolayer cell growth inhibition and recovery experiments were repeated 3 or 4 times. Each experiment was performed in triplicate. […] Cultures were treated with a tyrphostin (10 μM) dissolved in 0.1% DMSO on days 1 and 3. On day 6, cultures were washed and the cells allowed to recover. Typically cells were counted on days 3 and 5 for inhibition, and on days 7, 10 and 15 for recovery, other schedules were also employed as reported below.

Swiss 3T3 cells = conditions: read-out: 50% inhibitory concentration, PDGF receptor kinase and PDGF dependent DNA synthesis; cited from earlier work
[4] = test system: porcine aortic smooth muscle cells (SMC); experiment: Inhibition of cell proliferation and recovery, porcine SMC; assay type: cell-based; conditions: for inhibition at 10 µM: Sus scrofa
Experimental: as §1, with “The vessels were then cut into 2 mm^2 fragments which were placed in culture dishes with Dulbecco's modified Eagle's medium (DMEM) supplemented with 15% (v/v) fetal calf serum (FCS), 100 u/ml penicillin, 100 μg/ml streptomycin, and 0.2M L-glutamine.” left out
as §2

[5] = test system: porcine aorta endothelial cells (EC); conditions: read-out: 50% inhibitory concentration, PDGF receptor kinase and PDGF dependent DNA synthesis; cited from earlier work
[6] = test system: fibroblast growth factor-dependent DNA synthesis; conditions: relative to PDGF dependent DNA synthesis; cited from earlier work
[7] = test system: DNA synthesis stimulated by insulin, by epidermal growth factor, or by a combination of both; conditions: cited from earlier work
[8] = test system: vascular endothelial growth factor receptor KDR; conditions: cited from earlier work
[9] = test system: porcine aortic endothelial cells; conditions: cited from earlier work
human PDGF β-receptor = conditions: cited from earlier work
[10] = test system: sis-transfected NIH 3T3 cells; conditions: cited from earlier work
human PDGF α-receptor = conditions: cited from earlier work
[11] = test system: src-transformed NIH 3T3 cells; conditions: cited from earlier work
[12] = test system: stem cell factor receptor (c-Kit); conditions: cited from earlier work
p60c-src(F527) = conditions: cited from earlier work

Question: Which “inhibition of neointimal formation” value (neointimal formation) does the source give for `CC(C)(C)c1cc(C=C(C#N)C#N)cc(C(C)(C)C)c1O` [AG17] here?
Answer: effectively inhibits neointimal formation

Question: Which “level of PDGF β-receptor protein present in the cells” value (PDGF β-receptor) does the source give for `Cc1cc2ncc(-c3ccccc3)nc2cc1C` [AG1295, reference compound] here?
Answer: without affecting the level

Question: What about the “inhibition of PDGF-BB induced PDGF β-receptor tyrosine-phosphorylation” value (PDGF β-receptor; tyrphostin 10 μM, 60 min preincubation, PDGF-BB 100 ng/ml) of the same compound?
Answer: completely inhibited

Question: What about the “effect on epidermal growth factor receptor autophosphorylation” value [1] of the same compound?
Answer: no effect

Question: And the “reversibility of the effect on IMA SMC upon removal of the tyrphostin” value ([2]; 25 μM)?
Answer: completely reversible

Question: And the inhibition at 25 µM ([2]; Homo sapiens, 120 h, read-out: mean reduction / inhibition of IMA SMC proliferation compared to untreated or DMSO-treated cells)?
Answer: 48%

Question: And the “reversibility of the inhibitory effect on EC” value [3]?
Answer: completely reversible

Question: What about the inhibition at 10 µM ([3]; 72 h, by day 3, read-out: mean reduction of EC growth compared to controls) of the same compound?
Answer: ~10%

Question: What about the inhibition at 10 µM ([3]; 120 h, by day 5, read-out: reduction of EC growth compared to controls) of the same compound?
Answer: 13.5%

Question: What about the inhibition at 10 µM ([3]; FIG. 8 experiment, 10 μM, read-out: maximal inhibitory effect on porcine EC proliferation) of the same compound?
Answer: 22%

Question: And the IC50 (Swiss 3T3 cells)?
Answer: < 5000 nM

Question: What about the “inhibitory effect on porcine SMC growth (in words)” value ([4]; 10 μM, FIGS. 3-7) of the same compound?
Answer: very potent growth inhibition effect; also recorded: highly effective in blocking proliferation; also recorded: very effective proliferation inhibitors

Question: And the “toxicity on SMC” value ([4]; 10 μM, porcine SMC)?
Answer: low lasting toxicity

Question: And the inhibition at 10 µM ([4]; 72 h, read-out: mean reduction in SMC count compared to DMSO treated control cells, 10 μM, by day 3)?
Answer: 46%

Question: And the inhibition at 10 µM ([4]; 120 h, read-out: reduction in SMC count / inhibition of SMC growth over control, 10 μM, by day 5 (day given for AG1295 and AG1992))?
Answer: 78%

Question: What about the inhibition at 10 µM ([4]; read-out: maximal inhibitory effect on porcine SMC proliferation, FIG. 6 experiment, 10 μM) of the same compound?
Answer: 65%

Question: And the inhibition at 10 µM ([4]; read-out: maximal inhibitory effect on porcine SMC proliferation, FIG. 7 experiment, 10 μM)?
Answer: 81%

Question: What about the inhibition at 10 µM ([4]; read-out: mean reduction in SMC count compared to control cells (maximal inhibition in SMC growth), Table 2, 10 μM) of the same compound?
Answer: 78%

Question: What about the “reversibility of the inhibitory effect / recovery of SMC growth after washout” value ([4]; porcine SMC, cultures washed, cells allowed to recover) of the same compound?
Answer: completely reversible

Question: And the IC50 [5]?
Answer: < 1000 nM

Question: And the “blocking effect on fibroblast growth factor-dependent DNA synthesis” value [6]?
Answer: over an order of magnitude weaker blocking effect

Question: What about the “effect on DNA synthesis stimulated by insulin, by epidermal growth factor, or by a combination of both” value [7] of the same compound?
Answer: weak effects

Question: With `COc1cc2ncc(-c3ccccc3)nc2cc1OC` [AG1296] as the compound, how does the “effect on autophosphorylation of KDR” value [8] read?
Answer: no effect

Question: And the “effect on epidermal growth factor receptor autophosphorylation” value [1]?
Answer: no effect

Question: And the “effect on DNA synthesis induced by vascular endothelial growth factor” value [9]?
Answer: no effect

Question: What about the “inhibition of signalling of human PDGF β-receptor” value (human PDGF β-receptor) of the same compound?
Answer: potently inhibits

Question: And the “effect on transformed phenotype of sis-transfected NIH 3T3 cells” value [10]?
Answer: reverses the transformed phenotype

Question: What about the “inhibition of signalling of human PDGF α-receptor” value (human PDGF α-receptor) of the same compound?
Answer: potently inhibits

Question: And the “effect on src-transformed NIH 3T3 cells” value [11]?
Answer: no effect

Question: What about the IC50 (Swiss 3T3 cells) of the same compound?
Answer: < 5000 nM

Question: What about the IC50 [5] of the same compound?
Answer: < 1000 nM

Question: What about the “blocking effect on fibroblast growth factor-dependent DNA synthesis” value [6] of the same compound?
Answer: over an order of magnitude weaker blocking effect

Question: What about the “inhibition of signalling of stem cell factor receptor (c-Kit)” value [12] of the same compound?
Answer: potently inhibits

Question: What about the “effect on activity of the kinase p60c-src(F527) immunoprecipitated from src-transformed NIH 3T3 cells” value (p60c-src(F527)) of the same compound?
Answer: no effect

Question: What about the “effect on DNA synthesis stimulated by insulin, by epidermal growth factor, or by a combination of both” value [7] of the same compound?
Answer: weak effects
